Experimental data: PubChem BioAssay (NCI)
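GI50 = concentration required for 50% inhibition of growth. TGI: concentration producing complete growth inhibition.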

Experiments:
Experiment in all cases: NCI anticancer screen, dose series, 384-well format
OVCAR-3 ovarian = tested on: OVCAR-3 ovarian
HOP-62 NSCLC = tested on: HOP-62 NSCLC
SNB-75 CNS = tested on: SNB-75 CNS
HCT-15 colon = tested on: HCT-15 colon
MALME-3M melanoma = tested on: MALME-3M melanoma
SK-MEL-5 melanoma = tested on: SK-MEL-5 melanoma
SN12C renal = tested on: SN12C renal
BT-549 breast = tested on: BT-549 breast
HS 578T breast = tested on: HS 578T breast
M14 melanoma = tested on: M14 melanoma
EKVX NSCLC = tested on: EKVX NSCLC
T-47D breast = tested on: T-47D breast
HL-60(TB) leukemia = tested on: HL-60(TB) leukemia
SF-268 CNS = tested on: SF-268 CNS
HOP-92 NSCLC = tested on: HOP-92 NSCLC
TK-10 renal = tested on: TK-10 renal
KM12 colon = tested on: KM12 colon
OVCAR-5 ovarian = tested on: OVCAR-5 ovarian
K-562 leukemia = tested on: K-562 leukemia
SF-539 CNS = tested on: SF-539 CNS
PC-3 prostate = tested on: PC-3 prostate
MDA-MB-435 melanoma = tested on: MDA-MB-435 melanoma
UACC-257 melanoma = tested on: UACC-257 melanoma
SW-620 colon = tested on: SW-620 colon
OVCAR-4 ovarian = tested on: OVCAR-4 ovarian
IGROV1 ovarian = tested on: IGROV1 ovarian
NCI-H522 lung = tested on: NCI-H522 lung
COLO 205 colon = tested on: COLO 205 colon
NCI-H226 lung = tested on: NCI-H226 lung
HCT-116 colon = tested on: HCT-116 colon
MOLT-4 leukemia = tested on: MOLT-4 leukemia
ACHN renal = tested on: ACHN renal
U251 glioblastoma = tested on: U251 glioblastoma
CAKI-1 renal = tested on: CAKI-1 renal
HT29 colon = tested on: HT29 colon
NCI-H23 lung = tested on: NCI-H23 lung
SNB-19 CNS = tested on: SNB-19 CNS
RPMI-8226 leukemia = tested on: RPMI-8226 leukemia
SK-OV-3 ovarian = tested on: SK-OV-3 ovarian
SF-295 CNS = tested on: SF-295 CNS
NCI-H460 NSCLC = tested on: NCI-H460 NSCLC
OVCAR-8 ovarian = tested on: OVCAR-8 ovarian
MDA-MB-468 breast = tested on: MDA-MB-468 breast
LOX IMVI melanoma = tested on: LOX IMVI melanoma
786-0 renal = tested on: 786-0 renal
HCC-2998 colon = tested on: HCC-2998 colon
UACC-62 melanoma = tested on: UACC-62 melanoma
CCRF-CEM leukemia = tested on: CCRF-CEM leukemia
NCI/ADR-RES ovarian = tested on: NCI/ADR-RES ovarian
A498 renal = tested on: A498 renal
NCI-H322M lung = tested on: NCI-H322M lung
RXF 393 renal = tested on: RXF 393 renal
MCF7 breast = tested on: MCF7 breast
A549 NSCLC = tested on: A549 NSCLC
DU-145 prostate = tested on: DU-145 prostate
UO-31 renal = tested on: UO-31 renal
MDA-MB-231 breast = tested on: MDA-MB-231 breast
SK-MEL-28 melanoma = tested on: SK-MEL-28 melanoma

C[C@@H]1CN(Cc2ccc(F)cc2)[C@@H](C)CN1C(=O)c1cc2c(C(=O)C(=O)N(C)C)cn(C)c2cc1Cl
GI50 (OVCAR-3 ovarian): 17.8 µM
TGI (OVCAR-3 ovarian): 32.1 µM
GI50 (HOP-62 NSCLC): 10.8 µM
TGI (HOP-62 NSCLC): 24.1 µM
GI50 (SNB-75 CNS): 15.7 µM
TGI (SNB-75 CNS): 33.8 µM
GI50 (HCT-15 colon): 19.8 µM
TGI (HCT-15 colon): 39.3 µM
GI50 (MALME-3M melanoma): 18.3 µM
TGI (MALME-3M melanoma): 32.6 µM
GI50 (SK-MEL-5 melanoma): 7.47 µM
TGI (SK-MEL-5 melanoma): 20.5 µM
GI50 (SN12C renal): 15.8 µM
TGI (SN12C renal): 31.7 µM
GI50 (BT-549 breast): 17.7 µM
TGI (BT-549 breast): 31.8 µM
GI50 (HS 578T breast): 12.7 µM
TGI (HS 578T breast): 26.5 µM
GI50 (M14 melanoma): 14.1 µM
TGI (M14 melanoma): 28.8 µM
GI50 (EKVX NSCLC): 15.3 µM
TGI (EKVX NSCLC): 35 µM
GI50 (T-47D breast): 1.99 µM
TGI (T-47D breast): 17.2 µM
GI50 (HL-60(TB) leukemia): 20.7 µM
TGI (HL-60(TB) leukemia): 35.1 µM
GI50 (SF-268 CNS): 2.33 µM
TGI (SF-268 CNS): 14.7 µM
GI50 (HOP-92 NSCLC): 17.1 µM
TGI (HOP-92 NSCLC): 31.2 µM
GI50 (TK-10 renal): 23.8 µM
TGI (TK-10 renal): 52.3 µM
GI50 (KM12 colon): 14.8 µM
TGI (KM12 colon): 29.7 µM
GI50 (OVCAR-5 ovarian): 19.9 µM
TGI (OVCAR-5 ovarian): 52.1 µM
GI50 (K-562 leukemia): 7.01 µM
TGI (K-562 leukemia): 20.8 µM
GI50 (SF-539 CNS): 17.2 µM
TGI (SF-539 CNS): 31.3 µM
GI50 (PC-3 prostate): 18.6 µM
TGI (PC-3 prostate): 35 µM
GI50 (MDA-MB-435 melanoma): 15.5 µM
TGI (MDA-MB-435 melanoma): 31.1 µM
GI50 (UACC-257 melanoma): 19.7 µM
TGI (UACC-257 melanoma): 34.1 µM
GI50 (SW-620 colon): 18 µM
TGI (SW-620 colon): 40.9 µM
GI50 (OVCAR-4 ovarian): 22.4 µM
TGI (OVCAR-4 ovarian): 46.9 µM
GI50 (IGROV1 ovarian): 14.2 µM
TGI (IGROV1 ovarian): 28.3 µM
GI50 (NCI-H522 lung): 20.5 µM
TGI (NCI-H522 lung): 38.1 µM
GI50 (COLO 205 colon): 10.9 µM
TGI (COLO 205 colon): 23.7 µM
GI50 (NCI-H226 lung): 10.3 µM
TGI (NCI-H226 lung): 23.9 µM
GI50 (HCT-116 colon): 16.1 µM
TGI (HCT-116 colon): 30.5 µM
GI50 (MOLT-4 leukemia): 12.9 µM
TGI (MOLT-4 leukemia): 25.7 µM
GI50 (ACHN renal): 14.4 µM
TGI (ACHN renal): 43 µM
GI50 (U251 glioblastoma): 16.4 µM
TGI (U251 glioblastoma): 30.7 µM
GI50 (CAKI-1 renal): 15.4 µM
TGI (CAKI-1 renal): 41 µM
GI50 (HT29 colon): 12.7 µM
TGI (HT29 colon): 27 µM
GI50 (NCI-H23 lung): 20.1 µM
TGI (NCI-H23 lung): 44.5 µM
GI50 (SNB-19 CNS): 24.1 µM
TGI (SNB-19 CNS): 58.1 µM
GI50 (RPMI-8226 leukemia): 12.2 µM
TGI (RPMI-8226 leukemia): 24.7 µM
GI50 (SK-OV-3 ovarian): 19.6 µM
TGI (SK-OV-3 ovarian): 42.7 µM
GI50 (SF-295 CNS): 16.4 µM
TGI (SF-295 CNS): 31.9 µM
GI50 (NCI-H460 NSCLC): 12.7 µM
TGI (NCI-H460 NSCLC): 26.9 µM
GI50 (OVCAR-8 ovarian): 17.9 µM
TGI (OVCAR-8 ovarian): 38.9 µM
GI50 (MDA-MB-468 breast): 2.8 µM
TGI (MDA-MB-468 breast): 17.4 µM
GI50 (LOX IMVI melanoma): 14.8 µM
TGI (LOX IMVI melanoma): 28.5 µM
GI50 ([…]-0 renal): 13.6 µM
TGI (786-0 renal): 28.5 µM
GI50 (HCC-2998 colon): 17.1 µM
TGI (HCC-2998 colon): 31.5 µM
GI50 (UACC-62 melanoma): 8.17 µM
TGI (UACC-62 melanoma): 20.9 µM
GI50 (CCRF-CEM leukemia): 15.3 µM
TGI (CCRF-CEM leukemia): 28.8 µM
GI50 (NCI/ADR-RES ovarian): 18.3 µM
TGI (NCI/ADR-RES ovarian): 41.6 µM
GI50 (A498 renal): 13.6 µM
TGI (A498 renal): 29.2 µM
GI50 (NCI-H322M lung): 17.5 µM
TGI (NCI-H322M lung): 35.3 µM
GI50 (RXF 393 renal): 14.9 µM
TGI (RXF 393 renal): 28.9 µM
GI50 (MCF7 breast): 10.8 µM
TGI (MCF7 breast): 24.1 µM
GI50 (A549 NSCLC): 13.8 µM
TGI (A549 NSCLC): 35.5 µM
GI50 (DU-145 prostate): 19.1 µM
TGI (DU-145 prostate): 37.8 µM
GI50 (UO-31 renal): 15.1 µM
TGI (UO-31 renal): 29.6 µM
GI50 (MDA-MB-231 breast): 23.2 µM
TGI (MDA-MB-231 breast): 61.9 µM
GI50 (SK-MEL-28 melanoma): 16.1 µM
TGI (SK-MEL-28 melanoma): 31.6 µM
